Columns and labels:
[1] = test system: Candida albicans (ATCC 90028); assay: C. albicans biofilm formation, XTT metabolic reduction assay; assay type: cell-based
Protocol: Candida albicans (ATCC 90028) was used to study the anti-biofilm formation activity of exemplary ABF agents according to embodiments of the present invention.
The C. albicans strain was propagated in yeast peptone dextrose (YPD) medium (1% wt/vol yeast extract, 2% wt/vol peptone, 2% wt/vol dextrose). Batches of medium (30 ml in 125 ml Erlenmeyer flask) were inoculated with material from Sabouraud dextrose agar (SDA) plates containing freshly grown C. albicans and incubated overnight in an orbital shaker (200 rpm) at 30° C. under aerobic conditions. C. albicans grew in the budding-yeast phase under these conditions. Cells were harvested and washed twice in sterile phosphate-buffered saline (PBS) (Oxoid Ltd, Basingstoke, Hampshire, UK). Thereafter the cells were resuspended in RPMI 1640 supplemented with L-glutamine and buffered with morpholinepropanesulfonic acid (MOPS) (Sigma Chemical Co., St. Louis, Mo.) and adjusted to the desired density after counting with a hematocytometer.
Biofilms of C. albicans were formed in the wells on commercially available presterilized, polystyrene, flat-bottomed, 96-well microtiter plates (Nunc—Nunclon™ Surface, Roskilde, Denmark). Biofilms were formed by pipetting 100 μl of the standardized cell suspensions (5×10^6 cells/ml) into selected wells of the microtiter plate and incubating the plate for 72 hours at 37° C. After 24 hours and 48 hours of the biofilm formation, the medium was replaced by fresh RPMI 1640 medium.
Working concentrations of farnesol (300 μM; 66 μg/ml) and the exemplary ABF agents TZD10 and TZD11 (200 μg/ml) were prepared in RPMI 1640 by using the stock solutions. […]
The effect of the compounds on biofilm formation was measured by using a metabolic reduction assay (XTT kit). […] The colorimetric change (a reflection of the metabolic activity of the biofilm) was measured with a microtiter plate reader at 492 nm. The anti-biofilm formation activity effect of the tested agents was expressed as the percentage of the optical density (OD) of the treated wells compared to that of control (untreated) wells for the XTT assays. […]

[2] = test system: Candida albicans (ATCC 90028) preformed biofilm; assay: C. albicans preformed (mature) biofilm, XTT reduction assay; assay type: cell-based; conditions: for activity on the preformed biofilm: 24 hours on 48-hour biofilm
Protocol: The effect of the compounds on biofilm formation was measured by using a metabolic reduction assay (XTT kit). Briefly, 100 μl of the XTT reaction solution (Biological Industries, Israel Beit Haemek Ltd.) was added to each well, and microtiter plate was then incubated in the dark for 2 hours at 37° C. The colorimetric change (a reflection of the metabolic activity of the biofilm) was measured with a microtiter plate reader at 492 nm. The anti-biofilm formation activity effect of the tested agents was expressed as the percentage of the optical density (OD) of the treated wells compared to that of control (untreated) wells for the XTT assays. Light microscopic examination of biofilms formed in microtiter plates was performed in parallel by using an inverted microscope.
C. albicans biofilm was formed during 48 hours at 37° C. on the surfaces of microtiter plates by using the protocol described hereinabove, and the tested ABF agents were then added to the preformed biofilm. Following biofilm formation the spent medium and the nonadherent cells were removed by washing the biofilms three times in sterile PBS. The tested compounds, the ABF agent at 25, 50, 100 μg/ml, fluconazole at 31.25, 62.5, 125 μg/ml, in fresh RPMI 1640—farnesol at 150 μM (33 μg/ml), were added to selected wells of the microtiter plates. In addition, the effect of combination of farnesol (33 μg/ml) with fluconazole (31.25 μg/ml) and the ABF agent (25 or 50 μg/ml) with fluconazole (31.25 μg/ml) was examined on preformed biofilms. The plates were then incubated for 24 hours at 37° C. The effect of the compounds on pre-formed biofilms was then estimated by using the XTT reduction assay as described hereinabove.

| SMILES | reduction in the metabolic activity of the yeast cells (XTT) ([1]; 33 μg/ml, 72 hours) | additive effect of combination with fluconazole compared to farnesol alone ([1]; removed after 48 hours, fluconazole 31.25 μg/ml for another 24 hours) | activity on the preformed biofilm [2] | additive anti-biofilm effect of adding fluconazole ([2]; farnesol 33 μg/ml + fluconazole 31.25 μg/ml, pre-formed biofilm) | reduction in the metabolic activity (XTT), biofilm formation ([1]; 31-125 μg/ml, 72 hours) |
| --- | --- | --- | --- | --- | --- |
| CC(C)=CCC/C(C)=C/CC/C(C)=C/CO [farnesol] | 43% | did not show any additive effect | no activity | no additive anti-biofilm effect |  |
| OC(Cn1cncn1)(Cn1cncn1)c1ccc(F)cc1F [fluconazole] |  |  | no activity |  | up to 77% |

Source: patent publication US8865909B2, “Anti-biofilm agents” (Yissum Research Development Company of the Hebrew …, priority 2008, dated 2014)
